Reference: patent US20250352555A1, “METHOD OF INCREASING IMMUNE CELL ACTIVATION AND/OR TREATING CANCER USING DIBENZOXAZEPINONES” (VASCULAR THERAPEUTICS PTY LTD, priority 2022, published 2025)

Columns and labels:
Jurkat T cells = test: RNA-seq of Jurkat T cells; assay type: cell-based, human
Description: RNA-seq and bioinformatics analysis. Jurkat T cells were grown to confluence in 100 mm plates in complete medium and incubated with 10 μM BT2 or vehicle for 4 h. Total RNA was extracted using the RNeasy Mini Kit (Qiagen, cat. no. 74004) with modification. Briefly, cells were washed twice with pre-cooled 1×PBS and TRIzol reagent (Thermo Fisher Scientific cat. no. 15596026) was added to lyse the cells. Chloroform was added to the mixture before microfuge centrifugation at 13000 rpm for 15 min at 4° C. The upper aqueous layer containing total RNA was transferred to fresh microtubes, and isopropanol was added and loaded into RNeasy columns. Columns were washed with buffers RW1 and RPE. Total RNA was eluted from the column using ribonuclease-free water. Samples were submitted to the UNSW Ramaciotti Centre for Genomics for TruSeq Stranded mRNA-seq preparation and sequencing by One NextSeq 500 1×75 bp high-output flow cell with data output up to 400 M reads. Quality control of samples was set at >80% higher than Q30 at 1×75 bp.
RNA-seq reads were first assessed for quality using the tool FastQC (v0.11.8) www.bioinformatics.babraham.ac.uk/projects/fastqc/). The tool Salmon was used for quantifying transcript abundance from RNA-seq reads (Patro et al., 2017). The R package DESeq2 that incorporates a method for differential analysis of count data was then used to identify differentially expressed genes across specific comparisons (Love et al., 2014). This package was also used to perform principal component analysis. […] The ggplot2 R package was used to prepare bar plots, scatter plots, and density plots. The pheatmap R package was used to generate distance matrices, and clustered heatmaps. DESeq2 output was used to generate a ranked list for input into GSEA Pre-ranked (v6.0.12, Broad Institute) (Subramanian et al., 2005) for pathway analysis against the Curated (Canonical Pathway), Gene Ontology, and Hallmarks gene collections from MSigDb (Liberzon et al., 2015; Liberzon et al., 2011). Ranked scores were calculated by multiplying the sign of the log 2 fold change by the log 10 transformed adjusted p value. […] All immune response related gene sets were selected for display.
To gain insights into BT2's mode of action we conducted next generation RNA sequencing (RNA-seq) with extracts of Jurkat T cells exposed to 10 μM BT2 for 4 h.

MeWo cells = test: Cell morphology study, MeWo; assay type: cell-based, human; settings: 1 μM, 24 h
Description: Cell morphology studies. Cells were grown in medium containing 10% FBS in 4-well chamber slides. The following day the cells were incubated in medium containing 10% FBS and vehicle, BT2 or SCH772984 at 1 μM for 24 h, then fixed with 4% paraformaldehyde solution for 15 min. After washing briefly in PBS the cells were stained with hemotoxylin and eosin. The slides were scanned using an Aperio ScanScope XT slide scanner (Leica Biosystems, Mt Waverley, Vic, Australia) and images were captured using ImageScope software (Leica Biosystems).
The morphology of A375 and MeWo cells exposed to 1 μM of BT2 or SCH772984 for 24 h was also assessed.

CCOC(=O)Nc1ccc2c(c1)C(=O)N(CC)c1ccccc1O2 [BT2, (10-ethyl-11-oxo-10,11-dihydro-dibenzo[b,f][1,4]oxazepin-2-yl)-carbamic acid ethyl ester]
ADCYAP1 log2Fold Change (Jurkat T cells; 10 μM BT2 vs vehicle, 4 h): 1.242
ARHGAP29 log2Fold Change (Jurkat T cells; 10 μM BT2 vs vehicle, 4 h): 1.497
ATF3 log2Fold Change (Jurkat T cells; 10 μM BT2 vs vehicle, 4 h): 1.019
BACH2 log2Fold Change (Jurkat T cells; 10 μM BT2 vs vehicle, 4 h): 1.126
CD248 log2Fold Change (Jurkat T cells; 10 μM BT2 vs vehicle, 4 h): 2.579
CREB5 log2Fold Change (Jurkat T cells; 10 μM BT2 vs vehicle, 4 h): 1.577
DMBT1 log2Fold Change (Jurkat T cells; 10 μM BT2 vs vehicle, 4 h): 1.424
DUSP8 log2Fold Change (Jurkat T cells; 10 μM BT2 vs vehicle, 4 h): 3.811
ENPP1 log2Fold Change (Jurkat T cells; 10 μM BT2 vs vehicle, 4 h): 2.594
EPAS1 log2Fold Change (Jurkat T cells; 10 μM BT2 vs vehicle, 4 h): 1.187
FAM166A log2Fold Change (Jurkat T cells; 10 μM BT2 vs vehicle, 4 h): −1.443
FERMT2 log2Fold Change (Jurkat T cells; 10 μM BT2 vs vehicle, 4 h): 1.127
FLNC log2Fold Change (Jurkat T cells; 10 μM BT2 vs vehicle, 4 h): 1.158
GBP1 log2Fold Change (Jurkat T cells; 10 μM BT2 vs vehicle, 4 h): 1.317
GBP2 log2Fold Change (Jurkat T cells; 10 μM BT2 vs vehicle, 4 h): 1.999
HIST1H2AC log2Fold Change (Jurkat T cells; 10 μM BT2 vs vehicle, 4 h): −1.445
HIST1H2AG log2Fold Change (Jurkat T cells; 10 μM BT2 vs vehicle, 4 h): −1.417
HIST2H2BE log2Fold Change (Jurkat T cells; 10 μM BT2 vs vehicle, 4 h): −1.273
IL2RA log2Fold Change (Jurkat T cells; 10 μM BT2 vs vehicle, 4 h): 2.06
JUN log2Fold Change (Jurkat T cells; 10 μM BT2 vs vehicle, 4 h): 2.561
JUND log2Fold Change (Jurkat T cells; 10 μM BT2 vs vehicle, 4 h): 1.29
KCNMB1 log2Fold Change (Jurkat T cells; 10 μM BT2 vs vehicle, 4 h): 1.455
MAF log2Fold Change (Jurkat T cells; 10 μM BT2 vs vehicle, 4 h): −1.032
MYL4 log2Fold Change (Jurkat T cells; 10 μM BT2 vs vehicle, 4 h): 2.052
NPAS4 log2Fold Change (Jurkat T cells; 10 μM BT2 vs vehicle, 4 h): 1.211
NTN1 log2Fold Change (Jurkat T cells; 10 μM BT2 vs vehicle, 4 h): 6.501
PRKCE log2Fold Change (Jurkat T cells; 10 μM BT2 vs vehicle, 4 h): 1.177
PRRT1 log2Fold Change (Jurkat T cells; 10 μM BT2 vs vehicle, 4 h): −1.322
SIRPB2 log2Fold Change (Jurkat T cells; 10 μM BT2 vs vehicle, 4 h): 1.912
SPECC1L-ADORA2A log2Fold Change (Jurkat T cells; 10 μM BT2 vs vehicle, 4 h): 1.096
TEAD3 log2Fold Change (Jurkat T cells; 10 μM BT2 vs vehicle, 4 h): 1.133
TIMP3 log2Fold Change (Jurkat T cells; 10 μM BT2 vs vehicle, 4 h): 1.85
TUBA1A log2Fold Change (Jurkat T cells; 10 μM BT2 vs vehicle, 4 h): −1.19
TUBA1B log2Fold Change (Jurkat T cells; 10 μM BT2 vs vehicle, 4 h): −1.394
TUBA1C log2Fold Change (Jurkat T cells; 10 μM BT2 vs vehicle, 4 h): −1.121
TUBA4A log2Fold Change (Jurkat T cells; 10 μM BT2 vs vehicle, 4 h): −1.253
TUBB2A log2Fold Change (Jurkat T cells; 10 μM BT2 vs vehicle, 4 h): −1.005
TUBB3 log2Fold Change (Jurkat T cells; 10 μM BT2 vs vehicle, 4 h): −1.262
TUBB4B log2Fold Change (Jurkat T cells; 10 μM BT2 vs vehicle, 4 h): −1.52
ZYX log2Fold Change (Jurkat T cells; 10 μM BT2 vs vehicle, 4 h): 1.537
effect on FOS like 2 expression (Jurkat T cells; 10 μM, 4 h): negligible effects
effect on FOSB expression (Jurkat T cells; 10 μM, 4 h): negligible effects
increase of DUSP8 mRNA expression (Jurkat T cells; 10 μM, 4 h): 14.1 fold
increase of JUND levels (Jurkat T cells; 10 μM, 4 h): 2.4 fold
increase of netrin-1 (NTN1) (Jurkat T cells; 10 μM, 4 h): 90.6 fold
inhibition of MAF expression (Jurkat T cells; 10 μM, 4 h): 2 fold
JUN induction (Jurkat T cells; 10 μM, within 4 h): 5.9 fold
cell morphology (MeWo cells): loss of spindle morphology and cell rounding
